Among the data in patent publication US8580794B2 (AbbVie Inc., priority 2009, dated 2013) are EC50 and Ki values, retold here.

The test system of one assay is RS4;11 cells. The experiment in a line: RS4;11 Cell Viability Assay (CellTiter Glo).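 Note: RS4,11 acute lymphoblastic leukemia cells, viability as percent of untreated control cells, EC50 for loss of viable cells.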 It counts as cell-based. The following applies: Homo sapiens, RS4-11, 48 h, 50,000 cells per well, 10% human serum. (In general: ATP-based viability assays read luminescence as a measure of living cells.)
Another assay addresses GST-Bc1-2 (Homo sapiens, UniProt P10415). The assay is described as follows: Time Resolved-Fluorescence Resonance Energy Transfer (TR-FRET) Bcl-2 binding assay with F-Bak peptide probe. The following applies: GST-Bcl-2 1 nM, F-Bak probe 100 nM, Tb-anti-GST 1 nM; '<' = below limit of detection; read-out: TR-FRET Bcl-2 Binding Ki. (In TR-FRET formats the signal depends on donor and acceptor labels being close together.)

Some results are limits rather than exact numbers.

Sequence of GST-Bc1-2 (P10415 whole entry): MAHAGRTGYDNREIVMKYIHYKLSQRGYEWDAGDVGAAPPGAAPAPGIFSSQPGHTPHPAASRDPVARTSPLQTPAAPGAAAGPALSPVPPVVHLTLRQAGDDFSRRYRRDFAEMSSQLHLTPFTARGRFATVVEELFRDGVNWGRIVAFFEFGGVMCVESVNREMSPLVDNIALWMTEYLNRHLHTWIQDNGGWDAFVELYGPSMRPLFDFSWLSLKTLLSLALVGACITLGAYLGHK
Description for RS4;11 cells: The acute lymphoblastic leukemia (ALL) cell line RS4;11 was used as the primary human cell line to assess the cellular activity of Bcl-2 selective agents in vitro and their efficacy in vivo.
Cell cytotoxicity EC50 values were assessed using CellTiter Glo (Promega) according to the manufacturer's recommendations. The EC50 values were determined as a percentage of viable cells following treatment compared to the untreated control cells.

For orientation: EC50 means the concentration at which the effect is half-maximal. A higher EC50 goes with weaker potency. As a reminder, the Ki is a dissociation constant, usually derived from enzyme kinetics or from competition with a known ligand. Regarding `CC1(C)CCC(CN2CCN(c3ccc(C(=O)NS(=O)(=O)c4cnc(OCC5CCC6(CC5)CNC(=O)O6)c(Cl)c4)c(Oc4cnc5[nH]ccc5c4)c3)CC2)=C(c2ccc(Cl)cc2)C1` (stereo not shown) [Example 385, N-({5-chloro-6-[(2-oxo-1-oxa-3-azaspiro[4.5]dec-8-yl)methoxy]pyridin-3-yl}sulfonyl)-4-(4-{[2-(4-chlorophenyl)-4,4-dimethylcyclohex-1-en-1-yl]methyl}piperazin-1-yl)-2-(1H-pyrrolo[2,3-b]pyridin-5-yloxy)benzamide], a half-maximal effect with RS4;11 cells (EC50) was put at 133 nM. Further, the Ki at GST-Bc1-2 was less than 0.01 nM.
`COC1CCN(C(=O)Nc2ccc(S(=O)(=O)NC(=O)c3ccc(N4CCN(CC5=C(c6ccc(Cl)cc6)CC(C)(C)CC5)CC4)cc3Oc3cnc4[nH]ccc4c3)cc2[N+](=O)[O-])CC1` [Example 386, N-(4-{[4-(4-{[2-(4-chlorophenyl)-4,4-dimethylcyclohex-1-en-1-yl]methyl}piperazin-1-yl)-2-(1H-pyrrolo[2,3-b]pyridin-5-yloxy)benzoyl]sulfamoyl}-2-nitrophenyl)-4-methoxypiperidine-1-carboxamide]: in the assay on RS4;11 cells, a half-maximal response (EC50) required 8.38 nM. Also, the Ki on GST-Bc1-2 was less than 0.01 nM.
For `Cc1nc2c(s1)CC(COc1ncc(S(=O)(=O)NC(=O)c3ccc(N4CCN(CC5=C(c6ccc(Cl)cc6)CC(C)(C)CC5)CC4)cc3Oc3cnc4[nH]ccc4c3)cc1Cl)CC2` (stereo not shown) [Example 387], in that order: 911 nM and less than 0.01 nM.
On the same counts, the results for `CC1(C)CCC(CN2CCN(c3ccc(C(=O)NS(=O)(=O)c4cnc5c(ccn5CC5CCOCC5)c4)c(Oc4cnc5[nH]ccc5c4)c3)CC2)=C(c2ccc(Cl)cc2)C1` [Example 388, 4-(4-{[2-(4-chlorophenyl)-4,4-dimethylcyclohex-1-en-1-yl]methyl}piperazin-1-yl)-2-(1H-pyrrolo[2,3-b]pyridin-5-yloxy)-N-{[1-(tetrahydro-2H-pyran-4-ylmethyl)-1H-pyrrolo[2,3-b]pyridin-5-yl]sulfonyl}benzamide] are more than 1000 nM and 0.812 nM.
Compound `CC1(C)CCC(CN2CCN(c3ccc(C(=O)NS(=O)(=O)c4cnc5c(c4)c(Cl)cn5CC4CCOCC4)c(Oc4cnc5[nH]ccc5c4)c3)CC2)=C(c2ccc(Cl)cc2)C1` [Example 389, 4-(4-{[2-(4-chlorophenyl)-4,4-dimethylcyclohex-1-en-1-yl]methyl}piperazin-1-yl)-N-{[3-chloro-1-(tetrahydro-2H-pyran-4-ylmethyl)-1H-pyrrolo[2,3-b]pyridin-5-yl]sulfonyl}-2-(1H-pyrrolo[2,3-b]pyridin-5-yloxy)benzamide] returned an EC50 in the assay on RS4;11 cells of 733 nM. Moreover, the Ki at GST-Bc1-2 is 0.774 nM.
For `COCC1(C)CCC(CN2CCN(c3ccc(C(=O)NS(=O)(=O)c4ccc(NCC5CCOCC5)c([N+](=O)[O-])c4)c(Oc4cnc5[nH]ccc5c4)c3)CC2)=C(c2ccc(Cl)cc2)C1` (stereo not shown) [Example 390, 4-(4-{[2-(4-chlorophenyl)-4-(methoxymethyl)-4-methylcyclohex-1-en-1-yl]methyl}piperazin-1-yl)-N-({3-nitro-4-[(tetrahydro-2H-pyran-4-ylmethyl)amino]phenyl}sulfonyl)-2-(1H-pyrrolo[2,3-b]pyridin-5-yloxy)benzamide], in that order: 5.06 nM and less than 0.01 nM.
`CC1(C)CCC(CN2CCN(c3ccc(C(=O)NS(=O)(=O)c4ccc(OCC5CCC(CO)(CO)CC5)c([N+](=O)[O-])c4)c(Oc4cnc5[nH]ccc5c4)c3)CC2)=C(c2ccc(Cl)cc2)C1` [Example 391, N-[(4-{[4,4-bis(hydroxymethyl)cyclohexyl]methoxy}-3-nitrophenyl)sulfonyl]-4-(4-{[2-(4-chlorophenyl)-4,4-dimethylcyclohex-1-en-1-yl]methyl}piperazin-1-yl)-2-(1H-pyrrolo[2,3-b]pyridin-5-yloxy)benzamide] yielded an EC50 in the assay with RS4;11 cells of 8.41 nM. Moreover, at GST-Bc1-2, the Ki is less than 0.01 nM.
For `COC1CCN(C(=O)Nc2ccc(S(=O)(=O)NC(=O)c3ccc(N4CCN(CC5=C(c6ccc(Cl)cc6)CC(C)(C)CC5)CC4)cc3Oc3cnc4[nH]ccc4c3)cc2Cl)CC1` [Example 392, N-(2-chloro-4-{[4-(4-{[2-(4-chlorophenyl)-4,4-dimethylcyclohex-1-en-1-yl]methyl}piperazin-1-yl)-2-(1H-pyrrolo[2,3-b]pyridin-5-yloxy)benzoyl]sulfamoyl}phenyl)-4-methoxypiperidine-1-carboxamide], in that order: more than 1000 nM and 0.171 nM.
On the same counts, the results for `CC1(C)CCC(CN2CCN(c3ccc(C(=O)NS(=O)(=O)c4ccc(NC(=O)N5CCC(C#N)CC5)c(Cl)c4)c(Oc4cnc5[nH]ccc5c4)c3)CC2)=C(c2ccc(Cl)cc2)C1` [Example 393, N-(2-chloro-4-{[4-(4-{[2-(4-chlorophenyl)-4,4-dimethylcyclohex-1-en-1-yl]methyl}piperazin-1-yl)-2-(1H-pyrrolo[2,3-b]pyridin-5-yloxy)benzoyl]sulfamoyl}phenyl)-4-cyanopiperidine-1-carboxamide] are more than 1000 nM and 0.263 nM.
For `CC1(C)CCC(CN2CCN(c3ccc(C(=O)NS(=O)(=O)c4ccc(NC(=O)N5CCC(C)(O)CC5)c(Cl)c4)c(Oc4cnc5[nH]ccc5c4)c3)CC2)=C(c2ccc(Cl)cc2)C1` [Example 394, N-(2-chloro-4-{[4-(4-{[2-(4-chlorophenyl)-4,4-dimethylcyclohex-1-en-1-yl]methyl}piperazin-1-yl)-2-(1H-pyrrolo[2,3-b]pyridin-5-yloxy)benzoyl]sulfamoyl}phenyl)-4-hydroxy-4-methylpiperidine-1-carboxamide], in that order: 461 nM and 0.132 nM.
Consider `COCC1CCN(C(=O)Nc2ccc(S(=O)(=O)NC(=O)c3ccc(N4CCN(CC5=C(c6ccc(Cl)cc6)CC(C)(C)CC5)CC4)cc3Oc3cnc4[nH]ccc4c3)cc2Cl)CC1` [Example 395, N-(2-chloro-4-{[4-(4-{[2-(4-chlorophenyl)-4,4-dimethylcyclohex-1-en-1-yl]methyl}piperazin-1-yl)-2-(1H-pyrrolo[2,3-b]pyridin-5-yloxy)benzoyl]sulfamoyl}phenyl)-4-(methoxymethyl)piperidine-1-carboxamide], for which, in the assay on RS4;11 cells, the EC50 is more than 1000 nM. The Ki on GST-Bc1-2 was 0.257 nM.
In the assay with RS4;11 cells, `CC1(C)CCC(CN2CCN(c3ccc(C(=O)NS(=O)(=O)c4ccc(NC(=O)N5CCC(N6CCOCC6)CC5)c(Cl)c4)c(Oc4cnc5[nH]ccc5c4)c3)CC2)=C(c2ccc(Cl)cc2)C1` [Example 398, N-(2-chloro-4-{[4-(4-{[2-(4-chlorophenyl)-4,4-dimethylcyclohex-1-en-1-yl]methyl}piperazin-1-yl)-2-(1H-pyrrolo[2,3-b]pyridin-5-yloxy)benzoyl]sulfamoyl}phenyl)-4-(morpholin-4-yl)piperidine-1-carboxamide] had an EC50 of 548 nM. The Ki at GST-Bc1-2 is 0.149 nM.
On the same counts, the results for `COCC1(O)CCC(COc2ncc(S(=O)(=O)NC(=O)c3ccc(N4CCN(CC5=C(c6ccc(Cl)cc6)CC(C)(C)CC5)CC4)cc3Oc3cnc4[nH]ccc4c3)cc2Cl)CC1` (stereo not drawn) [Example 399, N-[(5-chloro-6-{[trans-4-hydroxy-4-(methoxymethyl)cyclohexyl]methoxy}pyridin-3-yl)sulfonyl]-4-(4-{[2-(4-chlorophenyl)-4,4-dimethylcyclohex-1-en-1-yl]methyl}piperazin-1-yl)-2-(1H-pyrrolo[2,3-b]pyridin-5-yloxy)benzamide] are 127 nM and less than 0.01 nM.
Consider `CC1(C)CCC(CN2CCN(c3ccc(C(=O)NS(=O)(=O)c4cnc(OC[C@H]5CC[C@](O)(CO)CC5)c(Cl)c4)c(Oc4cnc5[nH]ccc5c4)c3)CC2)=C(c2ccc(Cl)cc2)C1` [Example 400, N-[(5-chloro-6-{[cis-4-hydroxy-4-(hydroxymethyl)cyclohexyl]methoxy}pyridin-3-yl)sulfonyl]-4-(4-{[2-(4-chlorophenyl)-4,4-dimethylcyclohex-1-en-1-yl]methyl}piperazin-1-yl)-2-(1H-pyrrolo[2,3-b]pyridin-5-yloxy)benzamide], for which, in the assay with RS4;11 cells, a half-maximal effect (EC50) was put at 64 nM. Besides, the inhibition constant (Ki) on GST-Bc1-2 stood at 0.031 nM.
For `CC1(C)CCC(CN2CCN(c3ccc(C(=O)NS(=O)(=O)c4cnc(OC[C@H]5CC[C@@](O)(CO)CC5)c(Cl)c4)c(Oc4cnc5[nH]ccc5c4)c3)CC2)=C(c2ccc(Cl)cc2)C1` [Example 401, N-[(5-chloro-6-{[trans-4-hydroxy-4-(hydroxymethyl)cyclohexyl]methoxy}pyridin-3-yl)sulfonyl]-4-(4-{[2-(4-chlorophenyl)-4,4-dimethylcyclohex-1-en-1-yl]methyl}piperazin-1-yl)-2-(1H-pyrrolo[2,3-b]pyridin-5-yloxy)benzamide], in that order: 26.6 nM and less than 0.01 nM.
For `O=C(NS(=O)(=O)c1ccc(NCC2CCOCC2)c([N+](=O)[O-])c1)c1ccc(N2CCN(CC3=C(c4ccc(Cl)cc4)CCCC3)CC2)cc1Oc1cnc2[nH]ccc2c1` [Example 403, 4-(4-{[2-(4-chlorophenyl)cyclohex-1-en-1-yl]methyl}piperazin-1-yl)-N-({3-nitro-4-[(tetrahydro-2H-pyran-4-ylmethyl)amino]phenyl}sulfonyl)-2-(1H-pyrrolo[2,3-b]pyridin-5-yloxy)benzamide], in that order: 34 nM and less than 0.01 nM.
On the same counts, the results for `CC1(C(=O)O)CCC(c2ccc(Cl)cc2)=C(CN2CCN(c3ccc(C(=O)NS(=O)(=O)c4ccc(NCC5CCOCC5)c([N+](=O)[O-])c4)c(Oc4cnc5[nH]ccc5c4)c3)CC2)C1` (stereo not shown) [Example 404, 4-(4-chlorophenyl)-1-methyl-3-[(4-{4-[({3-nitro-4-[(tetrahydro-2H-pyran-4-ylmethyl)amino]phenyl}sulfonyl)carbamoyl]-3-(1H-pyrrolo[2,3-b]pyridin-5-yloxy)phenyl}piperazin-1-yl)methyl]cyclohex-3-ene-1-carboxylic acid] are more than 1000 nM and less than 0.01 nM.
